Assay results: US20110071141A1, “Pesticidial Condensed-Ring Aryl Compounds” (Bayer CropScience AG, priority 2008, published 2011)
Like-named read-outs stand apart in the source and are kept apart here.

Legend:
Assay type in all cases: in vivo
[1] = system: Musca domestica; test: whole plant or invertebrate; details: 48 h, read-out: activity (mortality in %)
Procedure: (§1) Solvent: dimethyl sulfoxide
Prior to the assay, a piece or kitchen sponge is soaked with a mixture of sugar and compound solution and placed into a container. 10 adults (Musca domestica) are placed into the container and closed with a perforated lid. After 2 days, mortality in % is determined. 100% means that all the flies have been killed; 0% means that none of the flies have been killed.

[2] = system: Lucilia cuprina larvae; test: whole plant or invertebrate; details: 48 h, read-out: activity (mortality in %)
Procedure: as §1
Approximately 20-30 (Lucilia cuprina larvae) are transferred into a test tube containing 1 cm^3 of minced horse meat and 0.5 ml aqueous dilution of test compound. After 2 days, mortality in % is determined.

[3] = system: Ctenocephalides felis; test: whole plant or invertebrate; details: 48 h, read-out: activity (mortality in %)
Procedure: as §1
Approximately 10 to 15 adult unfed (Ctenocepahlides felis) are placed in flea chambers. […] The blood chamber is heated to 37° C. whereas the flea chamber is kept at room temperature. After 2 days, mortality in % is determined. 100% means that all the fleas have been killed; 0% means that none of the fleas have been killed.

[4] = system: Boophilus microplus; test: whole plant or invertebrate; details: Rhipicephalus microplus, 168 h, read-out: activity (mortality in %; 100% means all eggs infertile)
Procedure: as §1
Five adult engorged female ticks (Boophilus microplus) are injected with compound solution into the abdomen. Ticks are transferred into replica plates and incubated in a climate chamber for a period of time. Egg deposition of fertile eggs is monitored. After 7 days, mortality in % is determined. 100% means that all eggs are infertile; 0% means that all eggs are fertile.

[5] = system: Aulacophora femoralis; test: whole plant or invertebrate; details: in Cucumis sativus, 168 h, read-out: mortality (control efficacy)
Source text: The test solution has been prepared as described in biological test example 1.
Cucumber leaves were immersed in a test solution that had been diluted to a predetermined concentration with water. The leaves were air-dried and then put in a plastic cup containing sterilized black soil. 5 Aulacophora femoralis second instar larvae were released in the cup.

[6] = system: Boophilus microplus; test: Boophilus microplus test (dip); details: Rhipicephalus microplus, 168 h, read-out: activity (mortality in %)
Procedure: as §1
Eight to ten adult engorged female Boophilus microplus ticks are placed in perforated plastic beakers and immersed in aqueous compound solution for one minute. Ticks are transferred to a filter paper in a plastic tray. Egg deposition of fertile eggs is monitored after. After 7 days, mortality in % is determined. 100% means that all the ticks have been killed; 0% means that none of the ticks have been killed.

[7] = system: Phaedon cochleariae; test: Phaedon cochleariae test (spray application); details: in Brassica rapa, foliar, 168 h, read-out: activity (mortality in %)
Procedure: Solvent: 78.0 parts by weight of acetone • • 1.5 parts by weight of dimethylformamide Emulsifier: 0.5 parts by weight of alkylaryl polyglycolether
To produce a suitable preparation of active compound, 1 part by weight of active compound is mixed with the stated amount of solvent and emulsifier, and the concentrate is diluted with emulsifier-containing water to the desired concentration. Chinese cabbage (Brassica pekinesis) leaf-disks are sprayed with a preparation of the active ingredient of the desired concentration. Once dry, the leaf disks are infested with mustard beetle larvae (Phaedon cochleariae).
After 7 days, mortality in % is determined. 100% means that all beetle larvae have been killed and 0% means that none of the beetle larvae have been killed.

[8] = system: Spodoptera frugiperda; test: Spodoptera frugiperda test (spray application); details: 168 h, application rate 500 g/ha, sprayed maize leaf sections, larvae, 7 days
Source text: Solvent: 78.0 parts by weight acetone • 1.5 parts by weight dimethylformamide Wetting agent 0.5 parts by weight alkylarylpolyglcolether
To produce a suitable preparation of the active compound, 1 part by weight of active compound is mixed with the stated amount of solvent and emulsifier, and the concentrate is dilutes with emulsifier-containing water to the desired concentration.
Maize (Zea mais) leaf sections are sprayed with a preparation of the active ingredient of the desired concentration. Once dry, the leaf sections are infested with fall armyworm larvae (Spodoptera frugiperda). After 7 days, mortality in % is determined. 100% means that all caterpillars have been killed and 0% means that none of the caterpillars have been killed.

[9] = system: Tetranychus urticae; test: Test on Tetranychus urticae (spray test); details: active compound concentration 100 ppm; adult mites on pinto bean sprayed; 7 days
Procedure: The test solution has been prepared as described in biological test example 1. 50 to 100 adult Tetranychus urticae were placed on pinto bean leaves at true leaf stage having two main leaves that had been grown in a pot (6 cm diameter). After 1 day, a generous amount of the test solution which has been diluted with water to the predetermined concentration was sprayed thereto using a spray gun.
After keeping the pot in a green house for 7 days, acaricidal ratio was calculated. 100% means that all the mites have been killed; 0% means that none of the mites have been killed.

Row | SMILES | mortality at 100 ppm [1] [%] | mortality at 100 ppm ([2]; in Equus caballus) [%] | mortality at 100 ppm ([3]; in Bos taurus) [%] | mortality at 0.02 mg [4] [%] | mortality at 100 ppm [5] [%] | further results
1 | CC(=O)/N=C1\c2ccc(C3=NOC(c4cc(Cl)cc(Cl)c4)(C(F)(F)F)C3)cc2CN1Cc1ccccn1 (centres unmarked) [Example 1-235, N-[(1E)-5-[5-(3,5-dichlorophenyl)-5-(trifluoromethyl)-4,5-dihydroisoxazol-3-yl]-2-(pyridin-2-ylmethyl)-2,3-dihydro-1H-isoindol-1-ylinden]acetamide] | ≥ 80 | ≥ 80 | ≥ 80 | ≥ 80 |  | 
2 | CC(=O)N1Cc2cc(C3=NOC(c4cc(Cl)cc(Cl)c4)(C(F)(F)F)C3)ccc2C1=O (centres unmarked) [Example 1-221, 2-acetyl-5-[5-(3,5-dichlorophenyl)-5-(trifluoromethyl)-4,5-dihydroisoxazol-3-yl]-2,3-dihydro-1H-isoindol-1-one] |  |  |  |  | 100 | 
3 | FC(F)(F)C1(c2cc(Cl)cc(Cl)c2)CC(c2ccc3c(c2)COC3)=NO1 (centres unmarked) [Example 1-131, 5-(3,5-dichlorophenyl)-3-(1,3-dihydro-2-benzofuran-5-yl)-5-(trifluoromethyl)-4,5-dihydroisoxazole] | ≥ 80 | ≥ 80 | ≥ 80 | ≥ 80 | 100 | 
4 | CCNC(=O)N1CCc2cc(C3=NOC(c4cc(Cl)cc(Cl)c4)(C(F)(F)F)C3)ccc21 (centres unmarked) [Example 3-638, 5-[5-(3,5-dichlorophenyl)-5-(trifluoromethyl)-4,5-dihydroisoxazol-3-yl]-N-ethyl-2,3-dihydro-1H-indol-1-carboxamide] | ≥ 80 | ≥ 80 | ≥ 80 | ≥ 80 | 100 | 
5 | CC(=O)N1Cc2ccc(C3=NOC(c4cc(Cl)cc(Cl)c4)(C(F)(F)F)C3)cc2C1 (centres unmarked) [Example 1-151, 1-{5-[5-(3,5-dichlorophenyl)-5-(trifluoromethyl)-4,5-dihydroisoxazol-3-yl]-1,3-dihydro-2H-isoindol-2-yl}ethanone] |  | ≥ 80 |  | ≥ 80 | 100 | 
6 | N=C1OCc2cc(C3=NOC(c4cc(Cl)cc(Cl)c4)(C(F)(F)F)C3)ccc21 (centres unmarked) [Example 1-232, 5-[5-(3,5-dichlorophenyl)-5-(trifluoromethyl)-4,5-dihydroisoxazol-3-yl]-2-benzofuran-1(3H)-imine] | ≥ 80 | ≥ 80 | ≥ 80 | ≥ 80 | 100 | 
7 | O=C1OCc2cc(C3=NOC(c4cc(Cl)cc(Cl)c4)(C(F)(F)F)C3)ccc21 (centres unmarked) [Example 1-2, 5-[5-(3,5-dichlorophenyl)-5-(trifluoromethyl)-4,5-dihydroisoxazol-3-yl]-2-benzofuran-1(3H)-one] | ≥ 80 | ≥ 80 | ≥ 80 | ≥ 80 | 100 | mortality at 100 ppm [6]: ≥ 80%; mortality at 500 g/ha [7]: 80%; mortality at 500 g/ha [8]: ≥ 80%
8 | N#Cc1ccc2cc(C3=NOC(c4cc(Cl)cc(Cl)c4)(C(F)(F)F)C3)ccc2n1 (centres unmarked) [Example 1-255, 6-[5-(3,5-dichlorophenyl)-5-(trifluoromethyl)-4,5-dihydroisoxazol-3-yl]quinolin-2-carbonitrile] | ≥ 80 | ≥ 80 | ≥ 80 | ≥ 80 |  | 
9 | O=C1c2ccc(C3=NOC(c4cc(Cl)cc(Cl)c4)(C(F)(F)F)C3)cc2CN1Cc1ccccn1 (centres unmarked) [Example 1-58] |  |  |  |  |  | mortality (acaricidal ratio) [9]: at least 98%
10 | CCNC(=O)NC1CCc2cc(C3=NCC(c4cc(Cl)cc(Cl)c4)(C(F)(F)F)C3)ccc21 (centres unmarked) [Example 3-112, 1-{5-[3-(3,5-dichlorophenyl)-3-(trifluoromethyl)-3,4-dihydro-2H-pyrrol-5-yl]-2,3-dihydro-1H-inden-1-yl}-3-ethylurea] |  |  |  |  | 100 | mortality at 100 ppm ([1]; application rate 100 ppm, adults, 2 days): ≥ 80%; mortality at 100 ppm ([2]; application rate 100 ppm, larvae in minced horse meat, 2 days): ≥ 80%; mortality at 100 ppm ([3]; application rate 100 ppm in cattle blood, adult unfed fleas, 2 days): ≥ 80%; mortality at 0.02 mg ([4]; application rate 20 μg/animal injected, adult engorged female ticks, 7 days): ≥ 80%; mortality at 100 ppm ([6]; application rate 100 ppm, adult engorged female ticks immersed one minute, 7 days): ≥ 80%
11 | CC(=O)NC1CCc2cc(C3=NOC(c4cc(Cl)cc(Cl)c4)(C(F)(F)F)C3)ccc21 (centres unmarked) [Example 3-3, N-{5-[5-(3,5-dichlorophenyl)-5-(trifluoromethyl)-4,5-dihydroisoxazol-3-yl]-2,3-dihydro-1H-inden-1-yl}acetamide] | ≥ 80 | ≥ 80 | ≥ 80 | ≥ 80 | 100 | mortality at 100 ppm [6]: ≥ 80%
12 | NC1CCCc2cc(C3=NOC(c4cc(Cl)cc(Cl)c4)(C(F)(F)F)C3)ccc21 (centres unmarked) [Example 3-211, 6-[5-(3,5-dichlorophenyl)-5-(trifluoromethyl)-4,5-dihydroisoxazol-3-yl]-1,2,3,4-tetrahydronaphthalen-1-amine] |  |  |  | ≥ 80 | 100 | 
